Broadly, the solubility is how much of the substance goes into solution per volume.

Our source for the solubility values is US20080039533A1, “Bioactive Compositions Comprising Triazines” (3M INNOVATIVE PROPERTIES COMPANY, priority 2003, published 2008).

A short description of this data set: physchem. The conditions noted are these: buffer solution without triazine compound.

Structures are written as SMILES. Converted amounts (≈) assume the structure as drawn.

As to `CC(C)Cn1cnc2c(N)nc3ccccc3c21` [Imiquimod], the concentration in solution (pH 6.05, aqueous buffer) (solubility) was 20 µg/mL (≈ 83.2 µM) and the solubility (pH 7.82, aqueous buffer) amounted to 1.2 µg/mL (≈ 4.99 µM).
